# Source: ChEMBL document CHEMBL1201861, “Genomics of Drug Sensitity in Cancer screening data, Wellcome Trust Sanger Institute”
# Key:
# CPC-N = assay: cells; type: functional, cell-based, Homo sapiens; settings: Homo sapiens, CPC-N;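 note: growth inhibition of CPC-N cells, with a cell viability assay as the readout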
# Description: SANGER: Inhibition of human CPC-N cell growth in a cell viability assay.
# EW-12 = assay: SANGER: Inhibition of human EW-12 cell growth in a cell viability assay.; type: functional, cell-based
# IM-9 = assay: SANGER: Inhibition of human IM-9 cell growth in a cell viability assay.; type: functional, cell-based; settings: Homo sapiens, IM-9
# JIYOYE = assay: cells; type: functional, cell-based, Homo sapiens; settings: Homo sapiens, JIYOYE
# Description: SANGER: Inhibition of human JiyoyeP-2003 cell growth in a cell viability assay.
# NCI-H128 = assay: SANGER: Inhibition of human NCI-H128 cell growth in a cell viability assay.; type: functional, cell-based
# NCI-H1522 = assay: cells; type: functional, cell-based, Homo sapiens; settings: Homo sapiens, NCI-H1522;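 note: growth inhibition of NCI-H1522 cells, read out with a cell viability assay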
# Description: SANGER: Inhibition of human NCI-H1522 cell growth in a cell viability assay.
# NCI-H187 = assay: cells; type: functional, cell-based, Homo sapiens; settings: Homo sapiens, NCI-H187;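 note: growth inhibition of NCI-H187 cells, read out as cell viability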
# Description: SANGER: Inhibition of human NCI-H187 cell growth in a cell viability assay.
# NCI-H2107 = assay: SANGER: Inhibition of human NCI-H2107 cell growth in a cell viability assay.; type: functional, cell-based
# REH = assay: cells; type: functional, cell-based, Homo sapiens; settings: Homo sapiens, REH;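 note: growth inhibition of REH cells determined with a cell viability read-out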
# Description: SANGER: Inhibition of human REH cell growth in a cell viability assay.
# Raji = assay: cells; type: functional, cell-based, Homo sapiens; settings: Homo sapiens, Raji;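 note: cell viability assay measuring inhibition of Raji cell growth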
# Description: SANGER: Inhibition of human Raji cell growth in a cell viability assay.
# SIG-M5 = assay: cells; type: functional, cell-based, Homo sapiens; settings: Homo sapiens, SIG-M5;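 note: cell viability assay read-out, measuring how strongly growth of cultured human SIG-M5 cells is inhibited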
# Description: SANGER: Inhibition of human SIG-M5 cell growth in a cell viability assay.
# SKM-1 = assay: SANGER: Inhibition of human SKM-1 cell growth in a cell viability assay.; type: functional, cell-based
# SUP-T1 = assay: cells; type: functional, cell-based, Homo sapiens; settings: Homo sapiens, SUP-T1;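 note: growth inhibition of human SUP-T1 cells, read out as cell viability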
# Description: SANGER: Inhibition of human SUP-T1 cell growth in a cell viability assay.
# ARH-77 = assay: cells; type: functional, cell-based, Homo sapiens; settings: Homo sapiens, ARH-77;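 note: growth inhibition of ARH-77 cells, read out by a cell viability assay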
# Description: SANGER: Inhibition of human ARH-77 cell growth in a cell viability assay.
# CAL-148 = assay: cells; type: functional, cell-based, Homo sapiens; settings: Homo sapiens, CAL-148
# Description: SANGER: Inhibition of human CAL-148 cell growth in a cell viability assay.
# YT = assay: cells; type: functional, cell-based, Homo sapiens; settings: Homo sapiens, YT
# Description: SANGER: Inhibition of human YT cell growth in a cell viability assay.
# Calu-1 = assay: SANGER: Inhibition of human Calu-1 cell growth in a cell viability assay.; type: functional, cell-based; settings: Homo sapiens, Calu-1
# DMS-53 = assay: cells; type: functional, cell-based, Homo sapiens; settings: Homo sapiens, DMS-53;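 note: cell viability assay measuring growth inhibition of human DMS-53 cells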
# Description: SANGER: Inhibition of human DMS-53 cell growth in a cell viability assay.
# DV-90 = assay: cells; type: functional, cell-based, Homo sapiens; settings: Homo sapiens, DV-90;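 note: Read-out is a viability assay, with IC50 reflecting the drop in DV-90 cell growth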
# Description: SANGER: Inhibition of human DV-90 cell growth in a cell viability assay.
# EW-7 = assay: SANGER: Inhibition of human EW-7 cell growth in a cell viability assay.; type: functional, cell-based; settings: Homo sapiens, EW-7
# G-402 = assay: cells; type: functional, cell-based, Homo sapiens; settings: Homo sapiens, G-402
# Description: SANGER: Inhibition of human G-402 cell growth in a cell viability assay.
# HCC38 = assay: cells; type: functional, cell-based, Homo sapiens; settings: Homo sapiens, HCC38;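 note: cell viability assay on the human HCC38 cell line, with IC50 marking the concentration that inhibits cell growth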
# Description: SANGER: Inhibition of human HCC38 cell growth in a cell viability assay.
# HMV-2 cell line = assay: cells; type: functional, cell-based, Homo sapiens; settings: Homo sapiens, HMV-2;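 note: growth inhibition of HMV-II cells, read out with a cell viability assay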
# Description: SANGER: Inhibition of human HMV-II cell growth in a cell viability assay.
# IGROV-1 = assay: cells; type: functional, cell-based, Homo sapiens; settings: Homo sapiens, IGROV-1;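 note: reduction of IGROV-1 cell growth, read out with a viability assay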
# Description: SANGER: Inhibition of human IGROV-1 cell growth in a cell viability assay.
# IPC-298 = assay: SANGER: Inhibition of human IPC-298 cell growth in a cell viability assay.; type: functional, cell-based; settings: Homo sapiens, IPC-298
# LoVo = assay: cells; type: functional, cell-based, Homo sapiens; settings: Homo sapiens, LoVo;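 note: growth inhibition of human LoVo cells, read out with a cell viability assay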
# Description: SANGER: Inhibition of human LoVo cell growth in a cell viability assay.
# MCF7 = assay: cells; type: functional, cell-based, Homo sapiens; settings: Homo sapiens, MCF7;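 note: growth inhibition of human MCF7 cells, read out with a cell viability assay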
# Description: SANGER: Inhibition of human MCF7 cell growth in a cell viability assay.
# MDA-MB-468 = assay: cells; type: functional, cell-based, Homo sapiens; settings: Homo sapiens, MDA-MB-468
# Description: SANGER: Inhibition of human MDA-MB-468 cell growth in a cell viability assay.
# MEL-JUSO = assay: cells; type: functional, cell-based, Homo sapiens; settings: Homo sapiens, MEL-JUSO;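 note: growth inhibition of human MEL-JUSO cells, read out with a cell viability assay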
# Description: SANGER: Inhibition of human MEL-JUSO cell growth in a cell viability assay.
# MFE-296 = assay: SANGER: Inhibition of human MFE-296 cell growth in a cell viability assay.; type: functional, cell-based; settings: Homo sapiens, MFE-296
# MKN-28 = assay: cells; type: functional, cell-based, Homo sapiens; settings: Homo sapiens, MKN-28;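 note: cell viability assay read-out, IC50 reflects suppression of growth of human MKN-28 cells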
# Description: SANGER: Inhibition of human MKN28 cell growth in a cell viability assay.
# NCI-H2009 = assay: cells; type: functional, cell-based, Homo sapiens; settings: Homo sapiens, NCI-H2009;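 note: cell viability assay measuring inhibition of NCI-H2009 cell growth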
# Description: SANGER: Inhibition of human NCI-H2009 cell growth in a cell viability assay.
# NCI-H2452 = assay: cells; type: functional, cell-based, Homo sapiens; settings: Homo sapiens, NCI-H2452;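 note: growth inhibition of NCI-H2452 cells, read out with a cell viability assay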
# Description: SANGER: Inhibition of human NCI-H2452 cell growth in a cell viability assay.
# PFSK-1 = assay: cells; type: functional, cell-based, Homo sapiens; settings: Homo sapiens, PFSK-1;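 note: cell viability assay measuring how strongly compounds suppress growth of human PFSK-1 cells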
# Description: SANGER: Inhibition of human PFSK-1 cell growth in a cell viability assay.
# PLC-PRF-5 = assay: cells; type: functional, cell-based, Homo sapiens; settings: Homo sapiens, PLC-PRF-5;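 note: growth inhibition of human PLC-PRF-5 cells, read out with a viability assay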
# Description: SANGER: Inhibition of human PLC-PRF-5 cell growth in a cell viability assay.
# T47D = assay: cells; type: functional, cell-based, Homo sapiens; settings: Homo sapiens, T47D;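 note: growth inhibition of human T47D cells, measured with a cell viability assay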
# Description: SANGER: Inhibition of human T47D cell growth in a cell viability assay.
# A-375 = assay: cells; type: functional, cell-based, Homo sapiens; settings: Homo sapiens, A-375;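 note: growth inhibition of A375 cells, read out with a cell viability assay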
# Description: SANGER: Inhibition of human A375 cell growth in a cell viability assay.
# BHT-101 = assay: cells; type: functional, cell-based, Homo sapiens; settings: Homo sapiens, BHT-101
# Description: SANGER: Inhibition of human BHT-101 cell growth in a cell viability assay.
# C32 = assay: cells; type: functional, cell-based, Homo sapiens; settings: Homo sapiens, C32;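 note: cell viability assay, with IC50 reflecting inhibition of C32 cell growth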
# Description: SANGER: Inhibition of human C32 cell growth in a cell viability assay.
# TT = assay: cells; type: functional, cell-based, Homo sapiens; settings: Homo sapiens, TT
# Description: SANGER: Inhibition of human TT cell growth in a cell viability assay.
# UO-31 = assay: cells; type: functional, cell-based, Homo sapiens; settings: Homo sapiens, UO-31
# Description: SANGER: Inhibition of human U031 cell growth in a cell viability assay.
# CCF-STTG1 = assay: cells; type: functional, cell-based, Homo sapiens; settings: Homo sapiens, CCF-STTG1;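 note: growth inhibition of human CCF-STTG1 cells, determined with a cell viability read-out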
# Description: SANGER: Inhibition of human CCF-STTG1 cell growth in a cell viability assay.
# CHP-212 = assay: cells; type: functional, cell-based, Homo sapiens; settings: Homo sapiens, CHP-212
# Description: SANGER: Inhibition of human CHP-212 cell growth in a cell viability assay.
smiles,measurement,setting,value
COc1cc(N2CCN(C)CC2)ccc1Nc1ncc2c(n1)N(C)c1ccccc1C(=O)N2C,IC50,CPC-N,> 8000 nM
same,IC50,EW-12,> 8000 nM
same,IC50,IM-9,> 8000 nM
same,IC50,JIYOYE,6890 nM
same,IC50,NCI-H128,> 8000 nM
same,IC50,NCI-H1522,> 8000 nM
same,IC50,NCI-H187,> 8000 nM
same,IC50,NCI-H2107,> 8000 nM
same,IC50,REH,> 8000 nM
same,IC50,Raji,> 8000 nM
same,IC50,SIG-M5,5360 nM
same,IC50,SKM-1,> 8000 nM
same,IC50,SUP-T1,2230 nM
same,IC50,ARH-77,> 8000 nM
same,IC50,CAL-148,> 8000 nM
same,IC50,YT,3480 nM
N#Cc1c(O)c2c(-c3ccc(-c4ccccc4O)cc3)csc2[nH]c1=O,IC50,CPC-N,> 1020 nM
same,IC50,Calu-1,> 1020 nM
same,IC50,DMS-53,> 1020 nM
same,IC50,DV-90,> 1020 nM
same,IC50,EW-7,> 1020 nM
same,IC50,G-402,> 1020 nM
same,IC50,HCC38,> 1020 nM
same,IC50,HMV-2 cell line,> 1020 nM
same,IC50,IGROV-1,> 1020 nM
same,IC50,IM-9,> 1020 nM
same,IC50,IPC-298,> 1020 nM
same,IC50,JIYOYE,83.7 nM
same,IC50,LoVo,> 1020 nM
same,IC50,MCF7,> 1020 nM
same,IC50,MDA-MB-468,> 1020 nM
same,IC50,MEL-JUSO,> 1020 nM
same,IC50,MFE-296,> 1020 nM
same,IC50,MKN-28,> 1020 nM
same,IC50,NCI-H1522,194 nM
same,IC50,NCI-H187,545 nM
same,IC50,NCI-H2009,> 1020 nM
same,IC50,NCI-H2452,> 1020 nM
same,IC50,PFSK-1,> 1020 nM
same,IC50,PLC-PRF-5,> 1020 nM
same,IC50,REH,104 nM
same,IC50,Raji,670 nM
same,IC50,SIG-M5,7.86 nM
same,IC50,SUP-T1,265 nM
same,IC50,T47D,> 1020 nM
same,IC50,A-375,> 1020 nM
same,IC50,ARH-77,141 nM
same,IC50,BHT-101,> 1020 nM
same,IC50,C32,> 1020 nM
same,IC50,CAL-148,223 nM
same,IC50,TT,> 1020 nM
same,IC50,UO-31,> 1020 nM
same,IC50,YT,46.7 nM
same,IC50,CCF-STTG1,> 1020 nM
same,IC50,CHP-212,> 1020 nM
Cc1ccc(-c2c(C(=O)CCl)n(CCCO)c3ncnc(N)c23)cc1,IC50,CPC-N,> 4000 nM
same,IC50,EW-12,> 4000 nM
same,IC50,IM-9,> 4000 nM
same,IC50,JIYOYE,> 4000 nM
same,IC50,NCI-H128,3100 nM
same,IC50,NCI-H1522,> 4000 nM
same,IC50,NCI-H187,> 4000 nM
same,IC50,NCI-H2107,> 4000 nM
same,IC50,REH,> 4000 nM
same,IC50,Raji,> 4000 nM
same,IC50,SIG-M5,> 4000 nM
same,IC50,SKM-1,> 4000 nM
same,IC50,SUP-T1,> 4000 nM
same,IC50,ARH-77,> 4000 nM
same,IC50,CAL-148,> 4000 nM
same,IC50,YT,> 4000 nM
COc1cc2ncn(-c3cc(OCc4ccccc4C(F)(F)F)c(C(N)=O)s3)c2cc1OC [GW843682X],IC50,CPC-N,41.2 nM
same,IC50,EW-12,> 256 nM
same,IC50,IM-9,> 256 nM
same,IC50,JIYOYE,148 nM
same,IC50,NCI-H128,> 256 nM
same,IC50,NCI-H1522,> 256 nM
same,IC50,NCI-H187,23.3 nM
same,IC50,NCI-H2107,> 256 nM
same,IC50,REH,> 256 nM
same,IC50,Raji,> 256 nM
same,IC50,SIG-M5,21 nM
same,IC50,SKM-1,> 256 nM
same,IC50,SUP-T1,> 256 nM
same,IC50,ARH-77,58.1 nM
same,IC50,CAL-148,90.7 nM
same,IC50,YT,> 256 nM
CC(=O)O[C@H]1C(=O)[C@@]2(C)[C@H]([C@H](OC(=O)c3ccccc3)[C@]3(O)C[C@H](OC(=O)[C@H](O)[C@@H](NC(=O)c4ccccc4)c4ccccc4)C(C)=C1C3(C)C)[C@]1(OC(C)=O)CO[C@@H]1C[C@@H]2O [PACLITAXEL],IC50,CPC-N,30.8 nM
same,IC50,EW-12,> 102 nM
same,IC50,IM-9,> 102 nM
same,IC50,JIYOYE,21.8 nM
same,IC50,NCI-H128,> 102 nM
same,IC50,NCI-H1522,> 102 nM
same,IC50,NCI-H187,> 102 nM
same,IC50,NCI-H2107,> 102 nM
same,IC50,REH,> 102 nM
same,IC50,Raji,> 102 nM
same,IC50,SIG-M5,3.27 nM
same,IC50,SKM-1,> 102 nM
same,IC50,SUP-T1,> 102 nM
same,IC50,ARH-77,26 nM
same,IC50,CAL-148,54.4 nM
same,IC50,YT,> 102 nM
N[C@@H](CSC(c1ccccc1)(c1ccccc1)c1ccccc1)C(=O)O [S-TRITYL-L-CYSTEINE],IC50,CPC-N,2460 nM
same,IC50,EW-12,> 5120 nM
same,IC50,IM-9,> 5120 nM
same,IC50,JIYOYE,1700 nM
same,IC50,NCI-H128,> 5120 nM
same,IC50,NCI-H1522,> 5120 nM
same,IC50,NCI-H187,> 5120 nM
same,IC50,NCI-H2107,> 5120 nM
same,IC50,REH,> 5120 nM
same,IC50,Raji,3600 nM
same,IC50,SIG-M5,2770 nM
same,IC50,SKM-1,> 5120 nM
same,IC50,SUP-T1,> 5120 nM
same,IC50,ARH-77,3540 nM
same,IC50,CAL-148,4350 nM
same,IC50,YT,> 5120 nM
CC[C@H](CO)Nc1nc(NCc2ccccc2)c2ncn(C(C)C)c2n1 [SELICICLIB],IC50,CPC-N,> 16000 nM
same,IC50,EW-12,> 16000 nM
same,IC50,IM-9,> 16000 nM
same,IC50,JIYOYE,8500 nM
same,IC50,NCI-H128,> 16000 nM
same,IC50,NCI-H1522,> 16000 nM
same,IC50,NCI-H187,> 16000 nM
same,IC50,NCI-H2107,> 16000 nM
same,IC50,REH,> 16000 nM
same,IC50,Raji,13800 nM
same,IC50,SIG-M5,> 16000 nM
same,IC50,SKM-1,> 16000 nM
same,IC50,SUP-T1,> 16000 nM
same,IC50,ARH-77,> 16000 nM
same,IC50,CAL-148,> 16000 nM
same,IC50,YT,> 16000 nM
CCN(CC)CCNC(=O)c1c(C)[nH]c(/C=C2\C(=O)Nc3ccc(F)cc32)c1C [SUNITINIB],IC50,CPC-N,> 8000 nM
same,IC50,EW-12,> 8000 nM
same,IC50,IM-9,> 8000 nM
same,IC50,JIYOYE,> 8000 nM
same,IC50,NCI-H128,> 8000 nM
same,IC50,NCI-H1522,> 8000 nM
same,IC50,NCI-H187,> 8000 nM
same,IC50,NCI-H2107,> 8000 nM
same,IC50,REH,> 8000 nM
same,IC50,Raji,> 8000 nM
same,IC50,SIG-M5,1370 nM
same,IC50,SKM-1,> 8000 nM
same,IC50,SUP-T1,> 8000 nM
same,IC50,ARH-77,7540 nM
same,IC50,CAL-148,> 8000 nM
same,IC50,YT,> 8000 nM
